*1 amine or outer side, *2 acyl side, *3 side chain or, on linkers, in order; H or OH if unused. Where a SMILES comes first, the peptide text is derived from it. Side-chain parts run from the residue outwards. [ ]: non-standard residue; d: D form. The star is where a group is joined. C20 diacid = O=C(O)CCCCCCCCCCCCCCCCCCC(=O)*; C18 diacid = O=C(O)CCCCCCCCCCCCCCCCC(=O)*; γGlu = O=C(O)[C@H](CCC(=O)[*:2])N[*:1]; Thp = NC1(C(=O)O)CCOCC1; AEEA = NCCOCCOCC(=O)O; Aib = CC(C)(N)C(=O)O
Columns and labels:
human CRF2a receptor = biological target: T1, human CRF2a receptor (Homo sapiens, UniProt Q13324); experiment: Activity at human CRF2a receptor, cAMP functional assay in TeloHEAC cells; type: cell-based; conditions: TeloHEAC cells stably expressing human CRF2a receptor, relative to urocortin 2 (100 nM = 100%)
T1 construct: expressed in transfected cells; host or cells: TeloHEAC cells
T1 sequence (Q13324 1-411): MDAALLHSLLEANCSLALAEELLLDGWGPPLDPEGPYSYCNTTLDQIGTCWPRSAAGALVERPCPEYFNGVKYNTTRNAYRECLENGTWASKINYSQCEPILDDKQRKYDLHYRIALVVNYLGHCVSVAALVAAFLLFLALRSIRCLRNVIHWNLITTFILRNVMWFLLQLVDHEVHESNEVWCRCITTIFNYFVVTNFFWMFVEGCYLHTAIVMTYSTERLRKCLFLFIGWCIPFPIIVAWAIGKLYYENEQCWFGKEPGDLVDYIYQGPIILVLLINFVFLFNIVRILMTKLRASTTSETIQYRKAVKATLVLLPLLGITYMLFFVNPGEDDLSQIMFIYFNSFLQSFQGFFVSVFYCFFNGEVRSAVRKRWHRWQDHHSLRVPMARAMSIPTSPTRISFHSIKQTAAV
Summary of the method: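 TeloHEAC cells stably expressing human CRF2a (10000 cells/well, suspended in HBSS/20 mM HEPES with 2 mM IBMX) were exposed to compounds for 30 min at 37 °C. cAMP was read as the 665/620 nm fluorescence ratio after 1 h at room temperature. EC50 was derived relative to 100 nM urocortin 2, set as 100%.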

CFR1R receptor = biological target: T2, CFR1R receptor (Homo sapiens, UniProt P34998); experiment: Activity at anti-target CFR1R receptor, cAMP assay in CRF1R-overexpression CHO-K1 cells; type: cell-based; conditions: 100% = Sauvagine at 100 nM; for EC50: cAMP
T2 construct: host or cells: CHO-K1 (clone 2)
T2 sequence (P34998 24-415): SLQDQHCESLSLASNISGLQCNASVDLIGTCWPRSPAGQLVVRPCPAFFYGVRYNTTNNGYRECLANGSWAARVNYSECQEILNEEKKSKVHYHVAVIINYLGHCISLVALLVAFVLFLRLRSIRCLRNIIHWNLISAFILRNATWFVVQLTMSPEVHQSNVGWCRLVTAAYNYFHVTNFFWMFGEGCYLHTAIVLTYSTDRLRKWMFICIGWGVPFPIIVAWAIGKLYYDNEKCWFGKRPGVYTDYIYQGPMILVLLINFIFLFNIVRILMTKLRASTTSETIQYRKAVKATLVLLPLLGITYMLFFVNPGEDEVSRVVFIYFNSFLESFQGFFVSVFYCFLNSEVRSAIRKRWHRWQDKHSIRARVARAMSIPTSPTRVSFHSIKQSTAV
Summary of the method: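 cAMP readout in CRF1R-overexpressing CHO-K1 cells (clone 2), run as for the TeloHAEC assay at 4000 cells/well final. Cells came from cryopreserved banks. Sauvagine at 100 nM defined 100% activation.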

[1] = In vitro subcutaneous tissue supernatant (SCts) stability and metabolite identification, rat; type: in vitro ADME; design: remaining at 2 h: dose or concentration left out as unconfirmed; conditions: male, Sprague Dawley; rat subcutaneous tissue supernatant (SCts), 37° C, 2 h
[2] = Chemical stability in buffer (pH 7.4 / pH 4.5), % purity loss; type: physicochemical; conditions: 40° C. vs 5° C., 14 or 28 days; for Buffer stability pH 4.5 % purity loss: 100 mM acetate buffer pH 4.5; for Buffer stability pH 7.4 % purity loss: 100 mM phosphate buffer pH 7.4
Summary of the method: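 Compounds dissolved at 10 mg/mL target in 100 mM phosphate (pH 7.4) or 100 mM acetate (pH 4.5) buffer for 1 h at room temperature, then centrifuged. Diluted supernatant stored at 5 °C or 40 °C for 14 or 28 days; % purity loss by LC-UV.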

Sprague Dawley rats = experiment: Effect on systolic blood pressure, telemetry in Sprague Dawley rats; type: in vivo, rat; conditions: 0.1 mg/kg SC; for Systolic blood pressure (Mean) % change from baseline, 8 h / Systolic blood pressure (Mean) % change from baseline, 12 h / Systolic blood pressure (Mean) % change from baseline, 24 h: n=2; for Duration of action: last time point with an effect on BP still observed
Summary of the method: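 Sprague Dawley rats with abdominal-aorta telemetry catheters, recovered ≥10 days, received 0.1 mg/kg SC of compound or vehicle. Systolic pressure recorded 1 h pre-dose as baseline, then continuously up to 48 hours, expressed as % change from baseline; duration of action is last time point with a BP effect (n=2).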

[3] = Pharmacokinetics in male Sprague Dawley rats after subcutaneous administration; type: in vivo; conditions: plasma, rat, IV, 0.05 mg/kg

In the case of `CC[C@H](C)[C@H](NC(C)=O)C(=O)N[C@H](C(=O)N[C@@H](CC(C)C)C(=O)N[C@@H](CO)C(=O)N[C@@H](CC(C)C)C(=O)N[C@@H](CC(=O)O)C(=O)N[C@@H](C(=O)N1CCC[C@H]1C(=O)N[C@H](C(=O)N[C@@H](CCCCN)C(=O)N[C@@H](CC(C)C)C(=O)N[C@@H](CCCCNC(=O)COCCOCCNC(=O)CC[C@H](NC(=O)CCCCCCCCCCCCCCCCC(=O)O)C(=O)O)C(=O)N[C@@H](CCCCN)C(=O)N[C@H](C(=O)N[C@@H](CC(C)C)C(=O)N[C@@H](CC(C)C)C(=O)N[C@@H](CCC(=O)O)C(=O)N[C@@H](CCC(N)=O)C(=O)N[C@@H](CCC(=O)O)C(=O)N[C@@H](CCCCN)C(=O)N[C@@H](CCC(N)=O)C(=O)N[C@@H](CCCCN)C(=O)N[C@@H](CCCCN)C(=O)N[C@@H](CCC(N)=O)C(=O)N[C@@H](CCCNC(=N)N)C(=O)N[C@@H](CCC(=O)O)C(=O)N[C@@H](CCC(N)=O)C(=O)N[C@@H](C)C(=O)N[C@@H](CCC(=O)O)C(=O)N[C@H](C(=O)N[C@@H](CC(N)=O)C(=O)NC(C)(C)C(=O)N[C@@H](CCC(N)=O)C(=O)N[C@H](C(=O)N[C@@H](CC(C)C)C(=O)N[C@@H](C)C(=O)N[C@@H](CCC(N)=O)C(=O)N[C@H](C(N)=O)C(C)C)[C@@H](C)CC)[C@@H](C)O)[C@@H](C)CC)[C@@H](C)CC)C(C)C)C(C)C` [compound 203] (Ac-IVLSLD[dV]PIKLK([AEEA-γGlu-C18 diacid])KILLEQEKQKKQREQAETN[Aib]QILAQV-NH2), the EC50 (human CRF2a receptor) is reported as 0.43 nM, the “Emax (% I)” value (CFR1R receptor) is reported as 3 % I and the EC50 (CFR1R receptor) is reported as over 250 nM. For the same compound, the remaining at 2 h [1] was 65%, the “Buffer stability pH 4.5 % purity loss” value [2] was 0.0/0.0 ^ % and the “Buffer stability pH 7.4 % purity loss” value [2] was 0.0/0.0 ^ %. The “Systolic blood pressure (Mean) % change from baseline, 8 h” value (Sprague Dawley rats) was −18%, the “Systolic blood pressure (Mean) % change from baseline, 12 h” value (Sprague Dawley rats) was −11% and the “Systolic blood pressure (Mean) % change from baseline, 24 h” value (Sprague Dawley rats) was 2%. It also gave a Duration of action (Sprague Dawley rats) of 23 h, an AUC(0-t) [3] of 4860 ng·h/mL and a half-life [3] of 6.2 h.
For `CC[C@H](C)[C@H](NC(C)=O)C(=O)N[C@H](C(=O)N[C@@H](CC(C)C)C(=O)N[C@@H](CO)C(=O)N[C@@H](CC(C)C)C(=O)N[C@@H](CC(=O)O)C(=O)N[C@@H](C(=O)N1CCC[C@H]1C(=O)N[C@H](C(=O)N[C@@H](CCCCN)C(=O)N[C@@H](CC(C)C)C(=O)N[C@@H](CCCCNC(=O)CC[C@H](NC(=O)CC[C@H](NC(=O)CCCCCCCCCCCCCCCCCCC(=O)O)C(=O)O)C(=O)O)C(=O)N[C@@H](CCCCN)C(=O)N[C@H](C(=O)N[C@@H](CC(C)C)C(=O)N[C@@H](CC(C)C)C(=O)N[C@@H](CCC(=O)O)C(=O)N[C@@H](CCC(N)=O)C(=O)N[C@@H](CCC(=O)O)C(=O)N[C@@H](CCCCN)C(=O)N[C@@H](CCC(N)=O)C(=O)N[C@@H](CCCCN)C(=O)N[C@@H](CCC(=O)O)C(=O)N[C@@H](CCC(N)=O)C(=O)N[C@@H](CCCNC(=N)N)C(=O)N[C@@H](CCC(=O)O)C(=O)N[C@@H](CCC(N)=O)C(=O)N[C@@H](C)C(=O)N[C@@H](CCC(=O)O)C(=O)N[C@H](C(=O)N[C@@H](CC(N)=O)C(=O)NC(C)(C)C(=O)N[C@@H](CCC(N)=O)C(=O)N[C@H](C(=O)N[C@@H](CC(C)C)C(=O)N[C@@H](C)C(=O)N[C@@H](CCC(N)=O)C(=O)N[C@H](C(N)=O)C(C)C)[C@@H](C)CC)[C@@H](C)O)[C@@H](C)CC)[C@@H](C)CC)C(C)C)C(C)C` [compound 241] (Ac-IVLSLD[dV]PIKLK([γGlu-γGlu-C20 diacid])KILLEQEKQKEQREQAETN[Aib]QILAQV-NH2), the EC50 (human CRF2a receptor) was 0.56 nM, the “Emax (% I)” value (CFR1R receptor) was 7 % I and the EC50 (CFR1R receptor) was over 250 nM. The remaining at 2 h [1] was 68%, the “Buffer stability pH 7.4 % purity loss” value [2] was 2.0/Not Tested % and the AUC(0-t) [3] was 6210 ng·h/mL. The half-life [3] was 15 h.
In the case of `CC[C@H](C)[C@H](NC(C)=O)C(=O)N[C@H](C(=O)N[C@@H](CC(C)C)C(=O)N[C@@H](CO)C(=O)N[C@@H](CC(C)C)C(=O)N[C@@H](CC(=O)O)C(=O)N[C@@H](C(=O)N1CCC[C@H]1C(=O)N[C@H](C(=O)N[C@@H](CCCCN)C(=O)N[C@@H](CC(C)C)C(=O)N[C@@H](CCCCNC(=O)COCCOCCNC(=O)COCCOCCNC(=O)CC[C@H](NC(=O)CCCCCCCCCCCCCCCCCCC(=O)O)C(=O)O)C(=O)N[C@@H](CCCCN)C(=O)N[C@H](C(=O)N[C@@H](CC(C)C)C(=O)N[C@@H](CC(C)C)C(=O)N[C@@H](CCC(=O)O)C(=O)N[C@@H](CCC(N)=O)C(=O)N[C@@H](CCC(=O)O)C(=O)N[C@@H](CCCCN)C(=O)N[C@@H](CCC(N)=O)C(=O)N[C@@H](CCCCN)C(=O)N[C@@H](CCC(=O)O)C(=O)N[C@@H](CCC(N)=O)C(=O)N[C@@H](CCCNC(=N)N)C(=O)N[C@@H](CCC(=O)O)C(=O)N[C@@H](CCC(N)=O)C(=O)N[C@@H](C)C(=O)N[C@@H](CCC(=O)O)C(=O)N[C@H](C(=O)N[C@@H](CC(N)=O)C(=O)NC(C)(C)C(=O)N[C@@H](CCC(N)=O)C(=O)N[C@H](C(=O)N[C@@H](CC(C)C)C(=O)N[C@@H](C)C(=O)N[C@@H](CCC(N)=O)C(=O)N[C@H](C(N)=O)C(C)C)[C@@H](C)CC)[C@@H](C)O)[C@@H](C)CC)[C@@H](C)CC)C(C)C)C(C)C` [compound 236] (Ac-IVLSLD[dV]PIKLK([AEEA-AEEA-γGlu-C20 diacid])KILLEQEKQKEQREQAETN[Aib]QILAQV-NH2), the EC50 (human CRF2a receptor) is reported as 0.54 nM, the “Emax (% I)” value (CFR1R receptor) is reported as 7 % I and the EC50 (CFR1R receptor) is reported as over 250 nM. For the same compound, the remaining at 2 h [1] was 75%, the “Buffer stability pH 7.4 % purity loss” value [2] was 3.8/Not Tested % and the AUC(0-t) [3] was 8250 ng·h/mL. For the same compound, the half-life [3] was 15 h.
With `CC[C@H](C)[C@H](NC(C)=O)C(=O)N[C@H](C(=O)N[C@@H](CC(C)C)C(=O)N[C@@H](CO)C(=O)N[C@@H](CC(C)C)C(=O)N[C@@H](CC(=O)O)C(=O)N[C@@H](C(=O)N1CCC[C@H]1C(=O)N[C@H](C(=O)N[C@@H](CCCCN)C(=O)N[C@@H](CC(C)C)C(=O)N[C@@H](CCCCNC(=O)CC[C@H](NC(=O)CCCCCCCCCCCCCCCCCCC(=O)O)C(=O)O)C(=O)N[C@@H](CCCCN)C(=O)N[C@H](C(=O)N[C@@H](CC(C)C)C(=O)N[C@@H](CC(C)C)C(=O)N[C@@H](CCC(=O)O)C(=O)N[C@@H](CCC(N)=O)C(=O)N[C@@H](CCC(=O)O)C(=O)N[C@@H](CCCCN)C(=O)N[C@@H](CCC(N)=O)C(=O)N[C@@H](CCCCN)C(=O)N[C@@H](CCCCN)C(=O)N[C@@H](CCC(N)=O)C(=O)N[C@@H](CCCNC(=N)N)C(=O)N[C@@H](CCC(=O)O)C(=O)N[C@@H](CCC(N)=O)C(=O)N[C@@H](C)C(=O)N[C@@H](CCC(=O)O)C(=O)N[C@H](C(=O)N[C@@H](CC(N)=O)C(=O)NC1(C(=O)N[C@@H](CCC(N)=O)C(=O)N[C@H](C(=O)N[C@@H](CC(C)C)C(=O)N[C@@H](C)C(=O)N[C@@H](CCC(N)=O)C(=O)N[C@H](C(N)=O)C(C)C)[C@@H](C)CC)CCOCC1)[C@@H](C)O)[C@@H](C)CC)[C@@H](C)CC)C(C)C)C(C)C` [compound 210] (Ac-IVLSLD[dV]PIKLK([γGlu-C20 diacid])KILLEQEKQKKQREQAETN[Thp]QILAQV-NH2) the remaining at 2 h [1] was 72%, the “Buffer stability pH 4.5 % purity loss” value [2] was 0.0/0.0 ^ % and the “Buffer stability pH 7.4 % purity loss” value [2] was 0.0/0.0 ^ %. The “Systolic blood pressure (Mean) % change from baseline, 8 h” value (Sprague Dawley rats) was −13%, the “Systolic blood pressure (Mean) % change from baseline, 12 h” value (Sprague Dawley rats) was −13% and the “Systolic blood pressure (Mean) % change from baseline, 24 h” value (Sprague Dawley rats) was −6%. The Duration of action (Sprague Dawley rats) was over 24 h, the AUC(0-t) [3] was 7780 ng·h/mL and the half-life [3] was 8.4 h.
